Data: publication PMC7180948, “New Insights into 4-Anilinoquinazolines as Inhibitors of Cardiac Troponin I–Interacting Kinase (TNNi3K)” (Molecules, 2020)

Key:
Test in all cases: biochemical
Set-up in all cases: KINOMEscan competition binding panel (Eurofins DiscoverX), single concentration, percent inhibition
Settings in all cases: read-out: 15 at 1 µM % inhibition
SIK2 = SIK2 (Homo sapiens, UniProt Q9H0K1)
Summary of the method: (§1)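 KINOMEscan binding panel of >400 kinases, run by Eurofins DiscoverX, with compounds tested at a single concentration of 1 µM.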

HIPK2 = HIPK2 (Homo sapiens, UniProt Q9H2X6)
Summary of the method: as §1

MARK2 = MARK2 (Homo sapiens, UniProt Q7KZI7)
Summary of the method: as §1

WEE2 = WEE2 (Homo sapiens, UniProt P0C1S8)
Summary of the method: as §1

PIK3C2G = PIK3C2G (Homo sapiens, UniProt O75747)
Summary of the method: as §1

LOK = target: T1, LOK (Homo sapiens, UniProt O94804)
T1 construct: gene STK10
Summary of the method: as §1

GRK4 = GRK4 (Homo sapiens, UniProt P32298)
Summary of the method: as §1

FGFR1 = FGFR1 (Homo sapiens, UniProt P11362)
Summary of the method: as §1

TGFBR1 = TGFBR1 (Homo sapiens, UniProt P36897)
Summary of the method: as §1

DRAK2 = target: T2, DRAK2 (Homo sapiens, UniProt O94768)
T2 construct: gene STK17B
Summary of the method: as §1

NIM1 = target: T3, NIM1 (Homo sapiens, UniProt Q8IY84)
T3 construct: gene NIM1K
Summary of the method: as §1

CDK4 = CDK4 (Homo sapiens, UniProt P11802)
Summary of the method: as §1

PIK3CA(H1047L) = PIK3CA(H1047L) (Homo sapiens, UniProt P42336, H1047L)
Summary of the method: as §1

MAK = MAK (Homo sapiens, UniProt P20794)
Summary of the method: as §1

EPHB1 = EPHB1 (Homo sapiens, UniProt P54762)
Summary of the method: as §1

ABL2 = ABL2 (Homo sapiens, UniProt P42684)
Summary of the method: as §1

CLK2 = CLK2 (Homo sapiens, UniProt P49760)
Summary of the method: as §1

DDR1 = DDR1 (Homo sapiens, UniProt Q08345)
Summary of the method: as §1

[1] = target: T4, JAK1(JH2domain-pseudokinase) (Homo sapiens, UniProt P23458)
T4 construct: JH2domain-pseudokinase
Summary of the method: as §1

CLK4 = CLK4 (Homo sapiens, UniProt Q9HAZ1)
Summary of the method: as §1

KIT(D816H) = KIT(D816H) (Homo sapiens, UniProt P10721, D816H)
Summary of the method: as §1

MAPKAPK5 = MAPKAPK5 (Homo sapiens, UniProt Q8IW41)
Summary of the method: as §1

CDKL5 = CDKL5 (Homo sapiens, UniProt O76039)
Summary of the method: as §1

OSR1 = target: T5, OSR1 (Homo sapiens, UniProt O95747)
T5 construct: gene OXSR1
Summary of the method: as §1

Sequence of MAK (P20794 whole entry): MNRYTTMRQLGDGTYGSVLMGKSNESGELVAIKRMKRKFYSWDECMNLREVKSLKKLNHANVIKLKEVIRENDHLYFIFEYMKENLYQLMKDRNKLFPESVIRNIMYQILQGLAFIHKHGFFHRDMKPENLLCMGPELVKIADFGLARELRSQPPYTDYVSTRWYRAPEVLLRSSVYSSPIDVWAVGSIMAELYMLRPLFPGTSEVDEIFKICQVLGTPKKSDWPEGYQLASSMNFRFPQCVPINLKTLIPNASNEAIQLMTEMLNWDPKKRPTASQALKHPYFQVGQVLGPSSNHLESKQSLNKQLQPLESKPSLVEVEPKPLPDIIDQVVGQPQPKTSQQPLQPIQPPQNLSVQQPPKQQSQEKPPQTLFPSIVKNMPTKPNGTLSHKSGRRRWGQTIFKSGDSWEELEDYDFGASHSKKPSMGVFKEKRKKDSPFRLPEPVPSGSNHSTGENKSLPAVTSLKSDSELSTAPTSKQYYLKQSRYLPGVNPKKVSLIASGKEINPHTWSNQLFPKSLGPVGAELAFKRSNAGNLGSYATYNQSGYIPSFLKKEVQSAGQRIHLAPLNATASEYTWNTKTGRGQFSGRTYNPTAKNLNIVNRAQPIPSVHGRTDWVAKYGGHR
Sequence of CLK2 (P49760 whole entry): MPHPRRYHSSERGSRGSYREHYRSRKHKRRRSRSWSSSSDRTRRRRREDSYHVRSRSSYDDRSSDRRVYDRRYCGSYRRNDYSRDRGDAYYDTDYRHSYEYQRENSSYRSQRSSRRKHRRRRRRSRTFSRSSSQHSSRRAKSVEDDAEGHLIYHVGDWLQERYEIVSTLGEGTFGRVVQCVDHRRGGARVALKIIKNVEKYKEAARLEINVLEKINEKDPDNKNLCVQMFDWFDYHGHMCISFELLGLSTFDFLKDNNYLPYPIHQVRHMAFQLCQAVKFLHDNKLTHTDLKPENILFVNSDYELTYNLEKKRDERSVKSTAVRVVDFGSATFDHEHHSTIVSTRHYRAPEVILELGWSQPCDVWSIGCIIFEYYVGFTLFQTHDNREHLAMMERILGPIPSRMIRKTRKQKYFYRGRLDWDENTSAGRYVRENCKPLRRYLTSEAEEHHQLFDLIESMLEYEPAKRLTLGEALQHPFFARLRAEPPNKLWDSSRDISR
Sequence of WEE2 (P0C1S8 whole entry): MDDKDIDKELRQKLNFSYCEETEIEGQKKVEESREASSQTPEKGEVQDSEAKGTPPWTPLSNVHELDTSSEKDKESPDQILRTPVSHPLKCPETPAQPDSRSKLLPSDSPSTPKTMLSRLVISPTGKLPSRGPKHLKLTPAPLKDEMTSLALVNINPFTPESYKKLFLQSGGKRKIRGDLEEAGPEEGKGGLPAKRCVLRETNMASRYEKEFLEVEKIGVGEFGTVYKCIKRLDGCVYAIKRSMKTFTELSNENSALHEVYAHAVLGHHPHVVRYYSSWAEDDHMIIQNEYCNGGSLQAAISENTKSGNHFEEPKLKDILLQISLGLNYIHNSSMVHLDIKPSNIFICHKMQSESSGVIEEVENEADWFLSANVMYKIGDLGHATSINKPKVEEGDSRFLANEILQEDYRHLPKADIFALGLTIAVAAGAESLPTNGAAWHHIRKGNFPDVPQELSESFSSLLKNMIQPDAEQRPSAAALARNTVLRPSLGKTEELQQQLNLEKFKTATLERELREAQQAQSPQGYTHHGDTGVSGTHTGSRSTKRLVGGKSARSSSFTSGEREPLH
Sequence of CDKL5 (O76039 whole entry): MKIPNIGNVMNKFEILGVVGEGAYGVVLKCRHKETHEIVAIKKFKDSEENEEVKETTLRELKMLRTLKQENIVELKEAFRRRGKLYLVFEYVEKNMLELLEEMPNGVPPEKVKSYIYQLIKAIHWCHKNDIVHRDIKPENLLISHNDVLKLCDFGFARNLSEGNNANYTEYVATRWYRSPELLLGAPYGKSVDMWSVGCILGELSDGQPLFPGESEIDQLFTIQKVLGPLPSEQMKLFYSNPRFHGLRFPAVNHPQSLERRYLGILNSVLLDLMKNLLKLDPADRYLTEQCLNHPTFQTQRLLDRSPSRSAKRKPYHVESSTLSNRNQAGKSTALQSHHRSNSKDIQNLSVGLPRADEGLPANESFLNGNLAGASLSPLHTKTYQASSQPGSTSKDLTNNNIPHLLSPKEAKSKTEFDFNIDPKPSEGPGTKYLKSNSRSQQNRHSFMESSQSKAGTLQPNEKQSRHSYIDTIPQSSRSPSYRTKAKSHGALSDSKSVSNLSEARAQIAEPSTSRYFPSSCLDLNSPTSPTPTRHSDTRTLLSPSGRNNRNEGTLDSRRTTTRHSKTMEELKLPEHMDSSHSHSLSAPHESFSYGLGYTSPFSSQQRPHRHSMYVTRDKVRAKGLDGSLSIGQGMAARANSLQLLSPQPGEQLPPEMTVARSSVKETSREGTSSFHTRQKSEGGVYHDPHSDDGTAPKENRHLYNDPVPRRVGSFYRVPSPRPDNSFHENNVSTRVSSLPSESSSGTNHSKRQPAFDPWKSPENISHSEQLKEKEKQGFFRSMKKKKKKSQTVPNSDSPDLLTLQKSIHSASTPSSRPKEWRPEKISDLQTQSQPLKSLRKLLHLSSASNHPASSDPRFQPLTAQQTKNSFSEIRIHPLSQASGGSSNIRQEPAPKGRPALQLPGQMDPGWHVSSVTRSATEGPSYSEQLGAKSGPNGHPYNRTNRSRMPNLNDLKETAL
T4 sequence (P23458 whole entry): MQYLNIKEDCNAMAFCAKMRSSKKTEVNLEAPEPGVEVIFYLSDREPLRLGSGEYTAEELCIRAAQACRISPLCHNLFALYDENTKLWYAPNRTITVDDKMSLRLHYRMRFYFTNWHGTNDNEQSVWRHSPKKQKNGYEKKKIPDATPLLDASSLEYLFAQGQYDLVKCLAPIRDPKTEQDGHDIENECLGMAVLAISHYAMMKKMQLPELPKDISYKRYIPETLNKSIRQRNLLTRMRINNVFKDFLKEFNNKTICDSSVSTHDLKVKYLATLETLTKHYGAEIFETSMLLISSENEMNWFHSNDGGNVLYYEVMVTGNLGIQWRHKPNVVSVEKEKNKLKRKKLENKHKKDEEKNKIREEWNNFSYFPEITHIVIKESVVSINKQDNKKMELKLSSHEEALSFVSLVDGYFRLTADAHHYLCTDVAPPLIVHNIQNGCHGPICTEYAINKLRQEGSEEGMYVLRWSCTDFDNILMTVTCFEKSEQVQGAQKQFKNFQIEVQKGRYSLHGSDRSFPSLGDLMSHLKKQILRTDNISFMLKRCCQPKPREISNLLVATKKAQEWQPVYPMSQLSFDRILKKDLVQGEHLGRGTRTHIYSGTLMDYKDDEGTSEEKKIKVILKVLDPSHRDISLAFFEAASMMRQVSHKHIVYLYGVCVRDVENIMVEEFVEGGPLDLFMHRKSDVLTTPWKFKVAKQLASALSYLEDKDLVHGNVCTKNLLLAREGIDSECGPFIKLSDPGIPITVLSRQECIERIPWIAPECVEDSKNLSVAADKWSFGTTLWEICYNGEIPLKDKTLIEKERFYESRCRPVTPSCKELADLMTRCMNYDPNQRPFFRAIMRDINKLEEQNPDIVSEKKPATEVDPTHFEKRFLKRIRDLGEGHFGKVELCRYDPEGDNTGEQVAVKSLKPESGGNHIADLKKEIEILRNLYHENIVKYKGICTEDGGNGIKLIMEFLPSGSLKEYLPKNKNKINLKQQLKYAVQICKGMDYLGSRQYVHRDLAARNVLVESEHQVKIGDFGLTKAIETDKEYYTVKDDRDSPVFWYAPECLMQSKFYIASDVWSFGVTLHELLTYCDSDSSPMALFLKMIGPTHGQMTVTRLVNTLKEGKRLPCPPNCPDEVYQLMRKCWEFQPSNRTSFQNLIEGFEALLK
Sequence of PIK3CA(H1047L) (P42336 whole entry H1047L): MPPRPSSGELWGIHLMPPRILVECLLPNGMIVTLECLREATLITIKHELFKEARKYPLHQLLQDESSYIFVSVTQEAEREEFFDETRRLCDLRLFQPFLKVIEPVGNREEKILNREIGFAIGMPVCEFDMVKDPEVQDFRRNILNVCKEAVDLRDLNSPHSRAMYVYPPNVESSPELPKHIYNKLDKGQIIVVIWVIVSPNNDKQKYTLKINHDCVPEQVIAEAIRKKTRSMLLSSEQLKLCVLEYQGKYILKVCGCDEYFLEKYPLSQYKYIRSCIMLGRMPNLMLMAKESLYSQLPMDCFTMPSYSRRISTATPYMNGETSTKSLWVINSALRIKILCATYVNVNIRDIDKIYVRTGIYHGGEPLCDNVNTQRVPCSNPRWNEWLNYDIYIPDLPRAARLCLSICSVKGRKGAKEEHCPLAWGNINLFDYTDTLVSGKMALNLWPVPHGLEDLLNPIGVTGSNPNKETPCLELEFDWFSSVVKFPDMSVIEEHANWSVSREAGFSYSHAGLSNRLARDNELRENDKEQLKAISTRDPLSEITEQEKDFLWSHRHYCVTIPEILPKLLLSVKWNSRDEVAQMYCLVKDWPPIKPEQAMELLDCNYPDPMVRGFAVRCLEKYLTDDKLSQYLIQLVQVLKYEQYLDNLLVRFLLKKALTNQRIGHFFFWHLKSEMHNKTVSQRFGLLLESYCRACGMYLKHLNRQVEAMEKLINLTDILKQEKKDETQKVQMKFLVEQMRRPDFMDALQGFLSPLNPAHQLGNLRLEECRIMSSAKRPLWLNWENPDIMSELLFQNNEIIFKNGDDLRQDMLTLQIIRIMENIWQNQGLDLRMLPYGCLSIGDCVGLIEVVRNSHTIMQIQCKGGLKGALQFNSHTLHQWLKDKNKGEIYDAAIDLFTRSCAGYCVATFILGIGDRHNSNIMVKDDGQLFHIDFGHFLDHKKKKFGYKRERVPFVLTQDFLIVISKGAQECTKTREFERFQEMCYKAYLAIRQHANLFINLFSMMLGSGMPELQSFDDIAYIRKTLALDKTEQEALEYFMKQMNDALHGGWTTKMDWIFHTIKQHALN

CNS(=O)(=O)c1ccc(N(C)C)c(Nc2nc(C)nc3cc(OC)c(OC)cc23)c1 [compound 15, 3-((6,7-dimethoxy-2-methylquinazolin-4-yl)amino)-4-(dimethylamino)-N-methylbenzenesulfonamide]
inhibition at 1 µM (SIK2): 4% | inhibition at 1 µM (HIPK2): 9% | inhibition at 1 µM (MARK2): 0% | inhibition at 1 µM (WEE2): 0% | inhibition at 1 µM (PIK3C2G): 22% | inhibition at 1 µM (LOK): 7% | inhibition at 1 µM (GRK4): 8% | inhibition at 1 µM (FGFR1): 10% | inhibition at 1 µM (TGFBR1): 0% | inhibition at 1 µM (DRAK2): 0% | inhibition at 1 µM (NIM1): 27% | inhibition at 1 µM (CDK4): 21% | inhibition at 1 µM (PIK3CA(H1047L)): 21% | inhibition at 1 µM (MAK): 8% | inhibition at 1 µM (EPHB1): 0% | inhibition at 1 µM (ABL2): 0% | inhibition at 1 µM (CLK2): 0% | inhibition at 1 µM (DDR1): 0% | inhibition at 1 µM [1]: 26% | inhibition at 1 µM (CLK4): 5% | inhibition at 1 µM (KIT(D816H)): 16% | inhibition at 1 µM (MAPKAPK5): 23% | inhibition at 1 µM (CDKL5): 19% | inhibition at 1 µM (OSR1): 42%
